Data published in patent US10981879B2, “Thioether triazolopyridine and triazolopyrimidine inhibitors of myeloperoxidase” (BRISTOL-MYERS SQUIBB COMPANY, priority 2014, dated 2021).

How the values were obtained:
Assay type in all cases: biochemical
myeloperoxidase (MPO) [1] = target: T1, myeloperoxidase (MPO) (Homo sapiens (Human), UniProt P05164); assay: MPO peroxidation assay (Amplex Red); conditions: Table 1
Method: MPO peroxidation activity was measured in 100 mM KPi (pH 7.4) by utilizing the non-fluorescent reagent Amplex Red (Invitrogen catalog #A12222) which can be oxidized to the highly fluorescent resorufin. Amplex Red is oxidized by the peroxidase action of MPO to resorufin. Reactions were carried out in 50 μL total volume by adding a 25 μL mixture of 200 pM myeloperoxidase and 40 nM H2O2 (Sigma #349887) to 100 nL inhibitor in 100% DMSO in a 384 well Perkin Elmer Optiplate. Enzyme and compound were preincubated for ten minutes at rt.
After the ten minute preincubation, 25 μL of an Amplex Red mixture containing 200 μM Amplex Red and 10 mM H2O2 was added to the plate. Kinetic determinations were carried out immediately on a Perkin Elmer Envision (15 minute kinetic read, Ex: 535 nm, Em: 590 nm).
IC50 values were calculated by determining the slope of the linear portion of the kinetic trace (180-540 secs), and using that calculated slope to determine % inhibition occurring at each concentration of inhibitor using the following equation:
[formula] where A=minimal Y value (activity level of inhibited sample), B=maximal Y value (activity level of uninhibited sample), C=Log IC50, D=Hill Slope, x=concentration of inhibitor. MPO Chlorination Assay

[2] = target: eosinophil peroxidase (EPX) (Homo sapiens (Human), UniProt P11678); assay: EPX bromination assay
Method: EPX bromination activity was measured in 100 mM KPi (pH 7.4) by monitoring the H2O2 catalyzed formation of 3-bromo tyrosine from tyrosine and potassium bromide. A 50 μl mixture of 0.6 μM EPX (Lee Biosolutions Cat #342-60) was added to 100 nL inhibitor in 100% DMSO in a 384 well REMP plate. Enzyme and compound were preincubated for ten minutes at rt.
After the ten minute preincubation of enzyme and inhibitor, 25 μL of a mixture containing 400 μM tyrosine and 1200 μM potassium bromide was added to the plate containing enzyme and inhibitor, followed by the addition of 25 μl of 20 μM H2O2. The reaction was allowed to proceed for 15 minutes, at which time it was quenched with 10 μL of 20% TCA. The final concentrations of all components were 0.3 μM EPX, 100 μM tyrosine, […], 5 μM H2O2, 0.1% DMSO, 2.0% TCA.
IC50 values were determined by determining the peak areas of 3-bromotyrosine present at the end of the 15 minute reaction and fitting the data to:
[formula] where A=minimal Y value (activity level of inhibited sample), B=maximal Y value (activity level of uninhibited sample), C=Log IC50, D=Hill Slope, x=concentration of inhibitor.
Reversed-phase analysis was performed on a Waters Acquity Ultra Performance LC system using an Acquity UPLC BEH C18 […], 2.1×50 mm analytical column. The column was maintained at 60° C. Samples were eluted using a gradient of 0%-100% B over 2.5 minutes, followed by equilibration with 100% A for 1 minute where A consisted of 0.1% TFA and B consisted of 90% MeOH/0.1% TFA at a flow rate of 0.6 mL/min. The retention time of 3-bromo tyrosine was 1.22 min.

myeloperoxidase (MPO) [3] = target: T1, myeloperoxidase (MPO); assay: MPO chlorination assay (APF)
Method in brief: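 Human MPO (200 pM) with 120 mM NaCl preincubated with inhibitor 10 minutes at rt in 100 mM KPi pH 7.4. Reaction started with APF mixture containing 10 μM H2O2; fluorescein fluorescence (ex 485/em 535 nm) read kinetically 3 minutes. IC50 from slopes of linear kinetic portion, fitted with a four-parameter Hill equation.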

[4] = MPO chlorination assay, ranges given, read-out: MPO chlorination assay IC50

Sequence of eosinophil peroxidase (EPX) (P11678 251-715): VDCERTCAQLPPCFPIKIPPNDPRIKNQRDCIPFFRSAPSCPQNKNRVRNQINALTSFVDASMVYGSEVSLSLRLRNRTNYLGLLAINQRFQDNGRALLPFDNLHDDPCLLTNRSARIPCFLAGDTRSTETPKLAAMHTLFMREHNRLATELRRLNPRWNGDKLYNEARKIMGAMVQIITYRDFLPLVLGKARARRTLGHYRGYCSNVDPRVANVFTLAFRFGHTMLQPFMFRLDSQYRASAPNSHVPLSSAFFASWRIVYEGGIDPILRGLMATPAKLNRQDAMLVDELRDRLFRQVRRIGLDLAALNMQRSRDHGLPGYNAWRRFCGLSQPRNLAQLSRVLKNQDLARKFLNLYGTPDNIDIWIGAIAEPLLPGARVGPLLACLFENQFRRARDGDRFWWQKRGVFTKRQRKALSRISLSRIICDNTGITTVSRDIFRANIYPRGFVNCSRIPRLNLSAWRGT
Sequence of eosinophil peroxidase (EPX) (P11678 140-250): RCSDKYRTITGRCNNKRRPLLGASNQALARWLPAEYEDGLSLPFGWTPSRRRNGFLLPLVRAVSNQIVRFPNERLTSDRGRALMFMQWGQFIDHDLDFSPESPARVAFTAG
T1 sequence (P05164 49-745): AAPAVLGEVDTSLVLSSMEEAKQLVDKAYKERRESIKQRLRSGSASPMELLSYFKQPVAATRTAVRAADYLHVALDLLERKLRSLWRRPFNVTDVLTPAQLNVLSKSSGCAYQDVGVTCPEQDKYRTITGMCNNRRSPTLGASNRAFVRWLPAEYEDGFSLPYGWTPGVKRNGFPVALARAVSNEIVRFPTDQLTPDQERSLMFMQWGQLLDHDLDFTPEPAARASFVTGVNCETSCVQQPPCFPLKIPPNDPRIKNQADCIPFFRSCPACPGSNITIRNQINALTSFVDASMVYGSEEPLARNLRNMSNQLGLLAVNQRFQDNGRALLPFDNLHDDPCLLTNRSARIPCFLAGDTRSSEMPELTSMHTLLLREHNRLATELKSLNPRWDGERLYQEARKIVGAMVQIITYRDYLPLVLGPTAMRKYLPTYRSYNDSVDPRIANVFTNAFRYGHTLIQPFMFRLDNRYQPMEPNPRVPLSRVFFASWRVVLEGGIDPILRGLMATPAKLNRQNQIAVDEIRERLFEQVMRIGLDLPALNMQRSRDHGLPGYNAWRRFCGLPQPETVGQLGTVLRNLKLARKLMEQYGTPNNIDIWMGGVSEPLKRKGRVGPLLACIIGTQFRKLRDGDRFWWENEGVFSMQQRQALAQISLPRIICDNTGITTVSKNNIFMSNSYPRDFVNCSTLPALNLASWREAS

For `CC(Sc1cc(N)nc2[nH]nnc12)c1ccccc1` (stereo not drawn) [Example 2, 7-((1-phenylethyl)thio)-3H-[1,2,3]triazolo[4,5-b]pyridin-5-amine], the IC50 (myeloperoxidase (MPO) [1]) was 10 nM, the IC50 [2] was 1 nM and the IC50 (myeloperoxidase (MPO) [3]; MPO chlorination assay (APF), Table 1, read-out: APF IC50) was 10 nM.
For `Cn1ncc2c(CSc3cc(N)nc4[nH]nnc34)cccc21` [Example 51, 7-(((1-methyl-1H-indazol-4-yl)methyl)thio)-3H-[1,2,3] triazolo[4,5-b]pyridin-5-amine], the IC50 [2] was 6 nM and the IC50 (myeloperoxidase (MPO) [3]; [4]) was 60 to 200 nM.
With `Nc1cc(SCc2c(Cl)cccc2Cl)c2nn[nH]c2n1` [Example 11, 7-((2,6-Dichlorobenzyl)thio)-3H-[1,2,3]triazolo[4,5-b]pyridin-5-amine] the IC50 [2] was 2 nM and the IC50 (myeloperoxidase (MPO) [3]; [4]) was ≤ 60 nM.
`Nc1cc(SCc2ccc(OC(F)(F)F)cc2)c2nn[nH]c2n1` [Example 7, 7-((4-(trifluoromethoxy)benzyl)thio)-3H-[1,2,3] triazolo[4,5-b]pyridin-5-amine] was tested, and the IC50 [2] was 20 nM and the IC50 (myeloperoxidase (MPO) [3]; [4]) was ≤ 60 nM.
